# What was measured:
# [1] = tested on: anti-Borrelia IgM serum; assay: Protection of anti-Borrelia IgM in spiked feces by various substances (ELISA), Example 4; conditions: 33°C for 3 hours; for ELISA OD: concentrations of all cations 0.219M, dilution in ELISA 1/3000
# Protocol: (§1) 25 µl of a high titred anti-Borrelia IgM serum obtained from a patient with acute Borreliosis was added to 5 tubes, each containing 50 mg of a fecal sample from a healthy volunteer. Following vortexing for 30 seconds, 500 µl of the normotonic (319 mOsm/L) solutions (i) 1 X PBS (7,7 mM Na2HPO4, 2,99 mM NaH2PO4, 145 mM NaCl), (ii) 64.5 mM zinc gluconate, (iii) 64,5 mM MgCl2, (iv) 64.5 mM magnesium gluconate or (v) 96.9 mM NaCl, the latter four all dissolved in 1/3 X PBS to obtain the same osmolarity as 1 X PBS, i.e. 319 mOsm/L was added to each of the five tubes. Following vortexing for 30 seconds, the tubes were subsequently incubated at 30°C for 5 hours. Thereafter, 250 µl of a protease inhibitor cocktail (see above) was added to each of the 5 tubes. Solid matter was suspended by vortexing for another 30 seconds followed by centrifugation at 13,000 x g for 10 min. The supernatants were stored at -70°C prior to examination or immediately tested in a commercially available anti-Borrelia IgM ELISA. For the purpose of comparison, 25 µl of the anti-Borrelia IgM serum was run in the immunoassay.
# 50 milligrams of feces and 25 µl of anti-Borrelia IgM serum were incubated at 33°C for 3 hours with each of the substances described in table 2. Following incubation, the fecal samples were processed and the extracts were obtained as described in example 3.
# [2] = tested on: anti-Borrelia IgM antibodies; assay: Protection of anti-Borrelia IgM in spiked feces by equimolar zinc compounds (ELISA), Example 5; conditions: 37°C for 4 hours, zinc concentration = 0.219M; for ELISA OD: dilution in ELISA 1/1450
# Protocol: 50 milligrams of feces and 25 µl of anti-Borrelia IgM serum was incubated at 37°C for 4 hours with equimolar concentrations of zinc gluconate, zinc chloride and zinc acetate (zinc concentration = 0.219M).
# [3] = tested on: anti-Borrelia IgM antibodies; assay: Inhibition of degradation of anti-Borrelia IgM in spiked fecal samples (anti-Borrelia IgM ELISA), Example 1; conditions: for Initial ELISA, O.D.: feces plus anti-Borrelia IgM serum plus 10% zinc gluconate, 30°C for 5 hours
# Protocol: In example numbers 1-5, fecal samples are spiked with a single analyte of interest, i.e. a predetermined amount of a high titered anti-Borrelia IgM serum is added to fecal samples in order to determine the extent to which the protective solution of the present invention prevents the degradation of the particular analyte added.
# (§2) 50 µl of a high titer anti-Borrelia IgM serum obtained from a patient with acute Borreliosis was added to 3 tubes each containing 50 mg of a fecal sample from a healthy volunteer. Following vortexing for 30 seconds, the tubes were incubated at 30°C for 5 hours in the presence or absence of 150 µl of 10% zinc gluconate (Gluconal® ZN-G; Glucona B.V., Veendam, The Netherlands). Following incubation, 150 µl of a protease inhibitor cocktail (0.2 mM 4-{2-aminoethyl}benzenesulfonylfluoride [Calbiochem], 1 µg of aprotinin [Sigma] per ml, 10 µM leupeptin [Sigma], and 3.25 µM bestatin [Boehringer Mannheim, Indianapolis, USA]) was added. After vortexing, the tubes were centrifuged at 13,000 x g for 10 min. The supernatants were stored at -70°C or immediately tested in a commercially available anti-Borrelia IgM ELISA (IDELA™ Borrelia burgdorferi IgM, DAKO Diagnostics Ltd., Cambridgeshire, UK). For the purpose of comparison, 50 µl of anti-Borrelia IgM serum was run in the immunoassay.
# The results are given in figure 4, Y-axis: ELISA results (O.D. value); X-axis: F+S; feces plus anti-Borrelia IgM serum incubated at 30°C or on ice for 5 hours, F+S+ZG; feces plus anti-Borrelia IgM serum plus zinc gluconate incubated at 30°C for 5 hours. […]
# [4] = tested on: anti-Borrelia IgM antibodies; assay: Long term stability of IgM antibodies extracted from spiked fecal samples, re-analysis in anti-Borrelia IgM ELISA, Example 2; conditions: extract stored at -70°C for 4 months, incubated 30°C for 5 hours
# Protocol: as §2
# The fecal extracts described in Example 1 were stored at -70°C for 4 months, and then re-analyzed in the anti-Borrelia IgM ELISA to check the long term stability of the antibodies stored in the presence or absence of 10% zinc gluconate.
# [5] = tested on: anti-Borrelia IgM; assay: Effect of normotonic (319 mOsm/L) solutions on degradation of anti-Borrelia IgM in spiked feces, Example 3
# Protocol: as §1, with “immunoassay. […]” for “immunoassay.”
# [6] = tested on: anti-CTB IgA
molecule,measurement,setting,value
N=C(NCCCCCCNC(=N)NC(=N)Nc1ccc(Cl)cc1)NC(=N)Nc1ccc(Cl)cc1 [Chlorhexidine gluconate],ELISA OD,[1],0.003 OD
O=C([O-])[C@H](O)[C@@H](O)[C@H](O)[C@H](O)CO.[Na+] [Sodium gluconate],ELISA OD,[1],0.087 OD
Copper acetate,ELISA OD,[1],0.042 OD
Copper sulphate,ELISA OD,[1],0.018 OD
Manganese chlonde,ELISA OD,[1],0.184 OD
Sodium chloride,ELISA OD,[1],0.043 OD
Zinc acetate [reference compound],ELISA OD,[2],0.281 OD
Zinc chloride [reference compound],ELISA OD,[2],0.011 OD
zinc gluconate,inhibition of degradation of anti-Borrelia IgM antibodies (figure 4),"[3]; 10% solution, fecal samples at 30°C for 5 hours",substantially inhibits the degradation
same,"Initial ELISA, O.D.",[3]; sample dilution 1/60,2.59 O.D.
same,"Initial ELISA, O.D.",[3]; sample dilution 1/180,2.57 O.D.
same,"Initial ELISA, O.D.",[3]; sample dilution 1/540,2.08 O.D.
same,ELISA O.D. after 4 months,[4]; sample dilution 1/60,2.48 O.D.
same,ELISA O.D. after 4 months,[4]; sample dilution 1/180,2.40 O.D.
same,ELISA O.D. after 4 months,[4]; sample dilution 1/540,1.75 O.D.
same,inhibition of degradation of anti-Borrelia IgM (Figure 5),"[5]; 64.5 mM in 1/3 X PBS, normotonic (319 mOsm/l), 30°C for 5 hours in feces",substantially inhibits the degradation
same,efficiency in conferring protection among the examined compounds (Figure 5),"[5]; compared with normotonic PBS, MgCl2, magnesium gluconate, NaCl, 30°C for 5 hours",the most efficient
same,protection among the substances tested (Table 2),[1]; cations 0.219M,gives the best protection
same,ELISA OD,[1],0.360 OD
same,protection of anti-Borrelia IgM antibodies from degradation (Table 3),[2],significantly protects
same,ELISA OD,[2],0.910 OD
same,capacity of the IgA molecules to bind antigen (CTB),[6],preserved
same,inhibition of degradation of IgA (figure 6),[6],significantly inhibit the degradation

# — EP1029246B1, “A METHOD AND DEVICE FOR PREVENTING IMMUNOGLOBULIN DEGRADATION IN EXTERNAL SECRETIONS” (priority 1997, dated 1999)
